{"source": "ChEMBL document CHEMBL1134155", "about": "“Synthesis and HIV-1 integrase inhibitory activities of catechol and bis-catechol derivatives” (Bioorg Med Chem Lett, 2001)", "key": {"CCRF-CEM": {"tested_on": "CCRF-CEM", "test": "Tested for antiviral activity against Human Immunodeficiency virus (HIV-1) replication in CEM cells.", "assay_type": "functional, cell-based"}, "[1]": {"target": "Human immunodeficiency virus type 1 integrase (Human immunodeficiency virus 1, UniProt Q7ZJM1)", "sequence (Q7ZJM1 whole entry)": "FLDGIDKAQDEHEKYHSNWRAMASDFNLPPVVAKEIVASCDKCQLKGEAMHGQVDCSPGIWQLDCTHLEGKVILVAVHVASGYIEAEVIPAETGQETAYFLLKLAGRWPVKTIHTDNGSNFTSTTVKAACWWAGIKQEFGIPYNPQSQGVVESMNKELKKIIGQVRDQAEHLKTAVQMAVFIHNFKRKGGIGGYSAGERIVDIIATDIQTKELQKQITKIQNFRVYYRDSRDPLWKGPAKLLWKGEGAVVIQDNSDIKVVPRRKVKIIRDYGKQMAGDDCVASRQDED", "test": "Inhibition of human immunodeficiency virus - 1 (HIV-1) integrase"}, "[2]": {"test": "Cytotoxicity in a cell viability MTT assay", "assay_type": "functional", "conditions": "read-out: TC50 (the source's name)"}}, "data": [{"smiles": "Cc1cc2cc(O)c(O)cc2c(C)c1-c1ccc(C(F)(F)F)cc1", "values": [{"measurement": "IC50", "setting": "CCRF-CEM", "result": 10.5, "unit": "µM"}, {"measurement": "IC50", "setting": "[1]", "result": 21, "unit": "µM"}, {"measurement": "CC50", "setting": "[2]", "result": 19, "unit": "µM"}]}, {"smiles": "Cc1cc2cc(O)c(O)cc2c(C)c1-c1ccc(O)c(O)c1", "values": [{"measurement": "IC50", "setting": "CCRF-CEM", "result": 8.7, "unit": "µM"}, {"measurement": "IC50", "setting": "[1]", "result": 23, "unit": "µM"}, {"measurement": "CC50", "setting": "[2]", "result": 33, "unit": "µM"}]}, {"smiles": "Cc1ccc(-c2c(C)cc3cc(O)c(O)cc3c2C)cc1", "values": [{"measurement": "IC50", "setting": "[1]", "result": 84, "unit": "µM"}]}, {"smiles": "Cc1cc2cc(O)c(O)cc2c(C)c1-c1ccccc1F", "values": [{"measurement": "IC50", "setting": "[1]", "result": 500, "unit": "µM"}]}, {"smiles": "Cc1cc2cc(O)c(O)cc2c(C)c1-c1cccc(C(F)(F)F)c1", "values": [{"measurement": "IC50", "setting": "CCRF-CEM", "result": 5.7, "unit": "µM"}, {"measurement": "IC50", "setting": "[1]", "result": 13, "unit": "µM"}, {"measurement": "CC50", "setting": "[2]", "result": 72.6, "unit": "µM"}]}, {"smiles": "Cc1ccc2cc(C)c(-c3ccc(O)c(O)c3)c(C)c2c1", "values": [{"measurement": "IC50", "setting": "[1]", "result": 157, "unit": "µM"}]}, {"smiles": "Oc1ccc(-c2ccc3cc(O)c(O)cc3c2)cc1O", "values": [{"measurement": "IC50", "setting": "CCRF-CEM", "result": 9.9, "unit": "µM"}, {"measurement": "IC50", "setting": "[1]", "result": 2.1, "unit": "µM"}, {"measurement": "CC50", "setting": "[2]", "result": 51, "unit": "µM"}]}, {"smiles": "Oc1cc2c(cc1O)C1Cc3cc(O)c(O)cc3C(C2)O1", "values": [{"measurement": "IC50", "setting": "CCRF-CEM", "result": 98, "unit": "µM"}, {"measurement": "IC50", "setting": "[1]", "result": 1.3, "unit": "µM"}, {"measurement": "CC50", "setting": "[2]", "result": "> 100", "unit": "µM"}]}, {"smiles": "Cc1cc2ccc(F)cc2c(C)c1-c1ccc(O)c(O)c1", "values": [{"measurement": "IC50", "setting": "[1]", "result": 500, "unit": "µM"}]}, {"smiles": "Cc1cc2cc(O)c(O)cc2c(C)c1-c1ccc(F)cc1", "values": [{"measurement": "IC50", "setting": "[1]", "result": 138, "unit": "µM"}]}, {"smiles": "Cc1cc2cc(O)c(O)cc2c(C)c1-c1ccccc1", "values": [{"measurement": "IC50", "setting": "[1]", "result": 76, "unit": "µM"}]}, {"smiles": "Cc1cc2cc(O)c(O)cc2c(C)c1-c1ccccc1C(F)(F)F", "values": [{"measurement": "IC50", "setting": "CCRF-CEM", "result": 10.3, "unit": "µM"}, {"measurement": "IC50", "setting": "[1]", "result": 22, "unit": "µM"}, {"measurement": "CC50", "setting": "[2]", "result": 13.6, "unit": "µM"}]}, {"smiles": "Cc1cc2c(F)cccc2c(C)c1-c1ccc(O)c(O)c1", "values": [{"measurement": "IC50", "setting": "[1]", "result": 500, "unit": "µM"}]}, {"smiles": "Cc1cc2ccccc2c(C)c1-c1ccc(O)c(O)c1", "values": [{"measurement": "IC50", "setting": "[1]", "result": 500, "unit": "µM"}]}]}
